Data from patent US8669272B2, “2,5-disubstituted piperidine orexin receptor antagonists” (Merck Sharp & Dohme Corp., priority 2008, dated 2014).

What was measured:
orexin-1 receptor (OX1R) = target: T1, orexin-1 receptor (OX1R) (Homo sapiens, UniProt O43613); assay: radioligand binding assay, membranes from CHO cells expressing OX1; conditions: CHO cell membranes
T1 construct: expressed in transfected cells; host or cells: CHO cells (membranes)
T1 sequence (O43613 1-425): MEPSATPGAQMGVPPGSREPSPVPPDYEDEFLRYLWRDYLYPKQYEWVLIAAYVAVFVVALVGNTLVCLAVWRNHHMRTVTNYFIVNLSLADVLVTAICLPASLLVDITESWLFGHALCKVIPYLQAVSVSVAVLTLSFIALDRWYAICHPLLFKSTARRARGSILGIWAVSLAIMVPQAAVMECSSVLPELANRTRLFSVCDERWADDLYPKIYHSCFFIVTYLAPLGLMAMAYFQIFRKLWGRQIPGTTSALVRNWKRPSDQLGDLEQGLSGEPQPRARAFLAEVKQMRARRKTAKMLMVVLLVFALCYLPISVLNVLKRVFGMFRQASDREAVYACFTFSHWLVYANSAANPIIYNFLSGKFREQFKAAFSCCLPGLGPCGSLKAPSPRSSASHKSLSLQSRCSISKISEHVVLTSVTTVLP
Description: (§1) The utility of the compounds in accordance with the present invention as orexin receptor OX1R and/or OX2R antagonists may be readily determined without undue experimentation by methodology well known in the art, including the “FLIPR Ca^2+ Flux Assay” (Okumura et al., Biochem. Biophys. Res. Comm. 280:976-981, 2001). In a typical experiment the OX1 and OX2 receptor antagonistic activity of the compounds of the present invention was determined in accordance with the following experimental method. For intracellular calcium measurements, Chinese hamster ovary (CHO) cells expressing the rat OX1 receptor or the human OX2 receptor, are grown in Iscove's modified DMEM containing 2 mM L-glutamine, […], 1% hypoxanthine-thymidine supplement, 100 U/ml penicillin, 100 ug/ml streptomycin and 10% heat-inactivated fetal calf serum (FCS). The cells are seeded at 20,000 cells/well into Becton-Dickinson black 384-well clear bottom sterile plates coated with poly-D-lysine. All reagents were from GIBCO-Invitrogen Corp. The seeded plates are incubated overnight at 37° C. and 5% CO2. Ala-6,12 human orexin-A as the agonist is prepared as a 1 mM stock solution in 1% bovine serum albumin (BSA) and diluted in assay buffer (HBSS containing 20 mM HEPES, 0.1% BSA and 2.5 mM probenecid, pH7.4) for use in the assay at a final concentration of 70 pM. Test compounds are prepared as 10 mM stock solution in DMSO, then diluted in 384-well plates, first in DMSO, then assay buffer. On the day of the assay, cells are washed 3 times with 100 ul assay buffer and then incubated for 60 min (37° C., 5% CO2) in 60 ul assay buffer containing 1 uM Fluo-4AM ester, 0.02% pluronic acid, and 1% BSA. The dye loading solution is then aspirated and cells are washed 3 times with 100 ul assay buffer. 30 ul of that same buffer is left in each well. Within the Fluorescent Imaging Plate Reader (FLIPR, Molecular Devices), test compounds are added to the plate in a volume of 25 ul, incubated for 5 min and finally 25 ul of agonist is added. Fluorescence is measured for each well at 1 second intervals for 5 minutes and the height of each fluorescence peak is compared to the height of the fluorescence peak induced by 70 pM Ala-6,12 orexin-A with buffer in place of antagonist. […] Alternatively, compound potency can be assessed by a radioligand binding assay (described in Bergman et. al. Bioorg. Med. Chem. Lett. 2008, 18, 1425-1430) in which the inhibition constant (Ki) is determined in membranes prepared from CHO cells expressing either the orexin-1 (OX1) or orexin-2 (OX2) receptor. The intrinsic orexin receptor antagonist activity of a compound which may be used in the present invention may be determined by these assays.

orexin-2 receptor (OX2R) = target: T2, orexin-2 receptor (OX2R) (Homo sapiens, UniProt O43614); assay: radioligand binding assay, membranes from CHO cells expressing OX2; conditions: CHO cell membranes
T2 construct: expressed in transfected cells; host or cells: CHO cells (membranes)
T2 sequence (O43614 1-444): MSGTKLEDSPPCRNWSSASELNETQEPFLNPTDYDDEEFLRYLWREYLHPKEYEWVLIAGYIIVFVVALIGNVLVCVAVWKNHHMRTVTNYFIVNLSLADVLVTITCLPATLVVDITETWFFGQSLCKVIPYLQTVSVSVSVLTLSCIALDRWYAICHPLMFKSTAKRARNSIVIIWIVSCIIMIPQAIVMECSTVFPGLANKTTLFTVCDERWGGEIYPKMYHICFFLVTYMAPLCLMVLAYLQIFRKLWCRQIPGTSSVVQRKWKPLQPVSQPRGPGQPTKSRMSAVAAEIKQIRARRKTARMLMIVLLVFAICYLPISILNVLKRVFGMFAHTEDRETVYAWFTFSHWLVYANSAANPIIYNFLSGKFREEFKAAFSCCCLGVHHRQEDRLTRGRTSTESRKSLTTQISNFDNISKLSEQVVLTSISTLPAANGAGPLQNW
Description: as §1

Compound	Ki (orexin-1 receptor (OX1R)) [nM]	Ki (orexin-2 receptor (OX2R)) [nM]
Cc1ccc(-n2nccn2)c(C(=O)N2C[C@H](COc3nccc4ccccc34)CC[C@H]2C)c1 [A-15, 1-({(3R,6R)-6-methyl-1-[5-methyl-2-(2H-1,2,3-triazol-2-yl)benzoyl]piperidine-3-yl}methoxy)isoquinoline]	2.7	0.2
Cc1ccc(-n2nccn2)c(C(=O)N2C[C@H](Cc3nc4ccccc4n3C)CC[C@H]2C)c1 [C-2, 1-methyl-2-({(3S,6R)-6-methyl-1-[5-methyl-2-(2H-1,2,3-triazol-2-yl)benzoyl]piperidin-3-yl}methyl)-1H-benzimidazole]	4.5	4.6
Cc1ccc(-n2nccn2)c(C(=O)N2C[C@H](CC(=O)N3CCCc4ccccc43)CC[C@H]2C)c1 [C-6, 1-({(3S,6R)-6-methyl-1-[5-methyl-2-(2H-1,2,3-triazol-2-yl)benzoyl]piperidin-3-yl}acetyl)-1,2,3,4-tetrahydroquinoline]	95	6.9
Cc1ccc(-n2nccn2)c(C(=O)N2C[C@H](COc3cccc(F)c3)CC[C@H]2C)c1 [A-9, (2R,5R)-5-[(3-fluorophenoxy)methyl]-2-methyl-1-[5-methyl-2-(2H-1,2,3-triazol-2-yl)benzoyl]piperidine]	0.86	0.36
